Assay results: PubChem BioAssay AID434987 (Southern Research Specialized Biocontainment Screening …, 2010)
Calls of active or inactive are those of the source. How the calls were made is not given here.

System: M. tuberculosis H37Rv growth inhibition with meropenem
Assay: dose response, H37Rv, with and without meropenem (AID 434987);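 further: growth over 7 days at 37 °C before Alamar Blue read on day 9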
[1] = M. tuberculosis H37Rv growth inhibition, measured here: IC50 without meropenem
[2] = M. tuberculosis H37Rv growth inhibition, measured here: IC90 without meropenem
[3] = measured here: IC90 with meropenem

Row | SMILES | IC50 | IC50 [1] | IC90 [2] | IC90 [3]
1 | COCc1cc(=O)n2[nH]cc(-c3ccccc3)c2n1 | 10.1 µM | 41.4 µM | > 100 µM | 15.5 µM
2 | Cn1nnnc1SCC(=O)Nc1ccccc1[N+](=O)[O-] | 28.8 µM | 71.9 µM | > 100 µM | > 100 µM
3 | O=c1c(O)c(-c2ccc3c(c2)OCO3)oc2ccccc12 | 2.12 µM | > 100 µM | > 100 µM | > 100 µM
4 | CCOC(=O)C1=C(N)OC(CCl)=C(C#N)C1c1ccsc1 (stereo not drawn) | > 100 µM (inactive) | > 100 µM | > 100 µM | > 100 µM
5 | CCOC(=O)/C(C#N)=C/c1ccc(OCC(=O)Nc2ccccc2)c(OC)c1 | 98.4 µM (inactive) | > 100 µM | > 100 µM | > 100 µM
6 | OCCCc1cn(-c2ccccc2)c2ccccc12 | 12.4 µM | > 100 µM | > 100 µM | 60.8 µM
7 | O=C(/C=C/c1ccc2c(c1)OCO2)Nc1nc2ccccc2s1 | > 100 µM (inactive) | > 100 µM | > 100 µM | > 100 µM
8 | O=C(Nc1ccc(F)cc1)c1sc2cc(C(F)(F)F)cnc2c1-c1cccs1 | > 100 µM (inactive) | > 100 µM | > 100 µM | > 100 µM
9 | CN(C)S(=O)(=O)n1cc(/C=C(\NC(=O)c2ccccc2)C(=O)NCCN2CCOCC2)c2ccccc21 | > 100 µM (inactive) | > 100 µM | > 100 µM | > 100 µM
10 | CCCCOc1ccccc1NC(=O)c1ccco1 | > 100 µM (inactive) | > 100 µM | > 100 µM | > 100 µM
11 | COc1ccc(/C=C2/CCCC(C(=O)C(F)(F)F)=C2O)cc1OC | 34.6 µM | 96.9 µM | > 100 µM | > 100 µM
12 | Cc1nnnn1/C(=C\c1ccccc1)C(=O)OCC(=O)NC1CCCCC1 | 8.62 µM (inactive) | 18.1 µM | 27 µM | 17.6 µM
13 | CC1=Nc2ccccc2/C1=C\c1nc(-c2ccc(F)cc2)oc1O | 3.73 µM | 93.7 µM | > 100 µM | > 100 µM
14 | Cc1ccc(S(=O)(=O)NCCCCCC(=O)Nc2ccccn2)cc1 | > 100 µM (inactive) | > 100 µM | > 100 µM | > 100 µM
15 | Cc1nc(SCC(=O)Nc2ccc(F)cc2)c(C#N)c(C)c1CC(=O)c1ccc(Br)cc1 | > 100 µM (inactive) | > 100 µM | > 100 µM | > 100 µM
16 | COc1ccc(Cl)cc1NC(=O)NNC(=O)c1ccccn1 | 41.1 µM (inactive) | > 100 µM | > 100 µM | > 100 µM
17 | Nc1c(C(=O)NC2CC2)c2nc3ccccc3nc2n1-c1ccc2c(c1)OCO2 | 95 µM (inactive) | 88.5 µM | > 100 µM | > 100 µM
18 | O=C(COC(=O)c1ccc(Cl)cc1[N+](=O)[O-])NNC(=O)c1cccs1 | 24.8 µM (inactive) | 39.4 µM | 53.9 µM | 51.1 µM
19 | CC(C)(C)NCCCOc1ccc(Cl)cc1C(C)(C)C | 24.8 µM (inactive) | 45.9 µM | 51.6 µM | 26.9 µM
20 | Cc1cc(NC(=O)CSc2nc(C(C)C)nc3sc4c(c23)CCCC4)no1 | > 100 µM (inactive) | > 100 µM | > 100 µM | > 100 µM
21 | CCN(Cc1ccncc1)C(=O)C(CO)c1ccccc1 (stereo not drawn) | > 100 µM (inactive) | > 100 µM | > 100 µM | > 100 µM

Row | SMILES | IC50 | IC50 [1] | IC90 [2] | IC90 [3]
22 | COc1ccc2[nH]cc(C(=O)CCl)c2c1 | 2.68 µM | 9.54 µM | 31 µM | > 100 µM
23 | COc1cc(NC(=O)C2CCCCC2)c(OC)cc1NC(=O)CN1CCCCC1 | 9.28 µM | 47.4 µM | > 100 µM | > 100 µM
24 | CC(C)=CCC/C(C)=C/C=N/NC(=O)c1ccc([N+](=O)[O-])cc1 | 1.02 µM | 49 µM | > 100 µM | > 100 µM
25 | COC(=O)/C(=C\Nc1ccc(Cl)c2ccccc12)c1ncc(C(F)(F)F)cc1Cl | 36 µM | > 100 µM | > 100 µM | > 100 µM
26 | COc1ccc(-c2nn(-c3ccccc3)cc2C(=O)Nc2nccs2)cc1OC | > 100 µM (inactive) | > 100 µM | > 100 µM | > 100 µM
27 | Cc1noc(/C=C/Nc2ccc(F)cc2F)c1[N+](=O)[O-] | > 100 µM (inactive) | > 100 µM | > 100 µM | > 100 µM
28 | O=C(NCC1COc2ccccc2O1)C1CCC(CNc2c(N3CCCCC3)c(=O)c2=O)CC1 (stereo not drawn) | 24 µM (inactive) | 45.9 µM | 51.7 µM | 26.7 µM
29 | Cn1nnnc1Sc1ncnc2scc(-c3ccc(C(F)(F)F)cc3)c12 | 6.75 µM (inactive) | 14.3 µM | 24.4 µM | 15 µM
30 | CCC1(CC)Cc2ccccc2C(N)=C1C#N | > 100 µM (inactive) | > 100 µM | > 100 µM | > 100 µM
31 | O=C(NC1CCCC1)c1ccccc1OCc1ccccc1 | 5.69 µM | 37.6 µM | > 100 µM | > 100 µM
32 | Cc1nc(SCC(=O)NCc2ccco2)c2c3c(sc2n1)CCCC3 | > 100 µM (inactive) | > 100 µM | > 100 µM | > 100 µM
33 | CCN(CC)C(=O)C1CCCN(c2ccc([N+](=O)[O-])cc2/C=N/NC(=O)c2cccc([N+](=O)[O-])c2)C1 (stereo not drawn) | > 100 µM (inactive) | > 100 µM | > 100 µM | > 100 µM
34 | CC(C)Cn1c2c(c(O)c(C(=O)Nc3ccc(F)cc3)c1=O)CCCC2 | 82.2 µM (inactive) | > 100 µM | > 100 µM | > 100 µM
35 | COc1ccc(-n2cc(-c3ccccc3)c3c(NN4CCOCC4)ncnc32)cc1 | 22.4 µM (inactive) | 32.8 µM | 60.3 µM | 36.1 µM
36 | CC(C)N1CCc2c(sc(NC(=O)c3cc(-c4cccs4)nc4ccccc34)c2C(N)=O)C1 | 13.7 µM (inactive) | 24.8 µM | > 100 µM | > 100 µM
37 | COC(=O)c1c(C)n(-c2ccccc2)c2ccc(O)cc12 | 1.53 µM | > 100 µM | > 100 µM | > 100 µM
38 | Cc1c(C(=O)Nc2cccnc2)oc2ccc(Br)cc12 | > 100 µM (inactive) | > 100 µM | > 100 µM | > 100 µM
39 | COc1ccccc1/C=N/NC(=S)Nc1cccnc1 | 31.1 µM | > 100 µM | > 100 µM | > 50 µM
40 | Nc1cc(=O)nc(SCc2ccccc2)n1Cc1ccco1 | 87.3 µM (inactive) | > 100 µM | > 100 µM | > 100 µM
41 | CC[C@@]1(c2ccccc2OC)C(=O)N(C(=O)OC)N1C(=O)OC | 13.9 µM | > 100 µM | > 100 µM | > 100 µM
42 | O=C(COc1ccccc1[N+](=O)[O-])N(Cc1cccc(Br)c1)C1CCS(=O)(=O)C1 (stereo not drawn) | > 100 µM (inactive) | > 100 µM | > 100 µM | > 100 µM
